pKi: −log10 of the molar value.
Columns and labels:
thrombin [1] = target: T1, thrombin (Homo sapiens, UniProt P00734); test: inhibition of thrombin with chromogenic substrate Chromozym TH; type: biochemical; conditions: starting material of Example 1
Method: The biological activity is determined from the inhibition of thrombin, whose enzymatic activity is in turn determined using the chromogenic substrate Chromozym TH (a product of Boehringer, Mannheim, West Germany, for thrombin and hirudin determination) in accordance with known directions supplied with the test preparation.

thrombin [2] = target: T1, thrombin; conditions: thrombin inhibitor; cited from earlier work
[3] = system: other proteinases of the clotting cascade; conditions: completely specific for thrombin; cited from earlier work
[4] = unusually high doses given to dogs; cited from earlier work
[5] = system: experimental thrombosis (stasis or thrombin injection), endotoxin shock, DIC; conditions: cited from earlier work

Question: For Hirudin, which “activity (inhibition of thrombin)” value (thrombin [1]) is on record?
Answer: The value was 630 IU/mg.

Question: And the pKi (thrombin [2])?
Answer: Its pKi is about 10.22.

Question: And the “inhibition of other proteinases of the clotting cascade” value [3]?
Answer: Its value is “does not inhibit”.

Question: And the “effect on heart rate, respiration, blood pressure, thrombocytes, fibrinogen and haemoglobin” value [4]?
Answer: Its value is “No effect”.

Question: What about the “efficacy in experimental thrombosis, endotoxin shock and DIC” value ([5]; rats, pigs, dogs, thrombosis induced by stasis or thrombin injection) of the same substance?
Answer: Its value is “proved effective”.

Question: And the “direct comparison with heparin” value ([5]; whenever direct comparison tests were carried out)?
Answer: The value was “superior to heparin”.

Source: patent US4745177A, “Desulfatohirudins, the preparation thereof and pharmaceutical compositions containing them” (Ciba-Geigy Corporation, priority 1983, dated 1988)
